#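 Each compound was tested at five concentrations against cells in 96-well plates for 48 hours. Here, GI50 denotes the concentration required for 50% inhibition of growth. The concentration for full growth arrest is given as TGI.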
# Key:
# Experiment in all cases: NCI tumour cell line growth inhibition, 48 h
# HOP-62 NSCLC = system: HOP-62 NSCLC
# SF-295 CNS = system: SF-295 CNS
# NCI-H522 lung = system: NCI-H522 lung
# IGROV1 ovarian = system: IGROV1 ovarian
# RXF 393 renal = system: RXF 393 renal
# KM12 colon = system: KM12 colon
# NCI-H226 lung = system: NCI-H226 lung
# HCC-2998 colon = system: HCC-2998 colon
# ACHN renal = system: ACHN renal
# SF-268 CNS = system: SF-268 CNS
# NCI-H460 lung = system: NCI-H460 lung
smiles,measurement,setting,value
Cc1ccc(Nc2nc(N)nc3c2ncn3C2OC(CO)C(O)C2O)cc1 (configuration not stated),TGI,HOP-62 NSCLC,> 100 µM
same,TGI,SF-295 CNS,> 100 µM
same,TGI,NCI-H522 lung,> 100 µM
same,TGI,IGROV1 ovarian,> 100 µM
same,TGI,RXF 393 renal,> 100 µM
same,TGI,KM12 colon,> 100 µM
same,TGI,NCI-H226 lung,> 100 µM
same,TGI,HCC-2998 colon,> 100 µM
same,TGI,ACHN renal,> 100 µM
C(=NCc1ccccc1)c1ccccc1-c1ccccc1C=NCc1ccccc1,TGI,SF-268 CNS,> 10 µM
same,TGI,NCI-H460 lung,> 10 µM
same,TGI,HOP-62 NSCLC,> 10 µM
same,TGI,SF-295 CNS,> 10 µM
same,TGI,NCI-H522 lung,> 10 µM
same,TGI,IGROV1 ovarian,> 10 µM
same,TGI,RXF 393 renal,> 10 µM
same,TGI,KM12 colon,> 10 µM
same,TGI,NCI-H226 lung,> 10 µM
same,TGI,ACHN renal,> 10 µM
N=C(N)c1csc([C@@H]2O[C@H](CO)[C@@H](O)[C@H]2O)n1,TGI,SF-268 CNS,> 100 µM
same,TGI,NCI-H460 lung,> 100 µM
same,TGI,SF-295 CNS,> 100 µM
same,TGI,IGROV1 ovarian,> 100 µM
same,TGI,RXF 393 renal,> 100 µM
same,TGI,KM12 colon,> 100 µM
same,TGI,NCI-H226 lung,> 100 µM
same,TGI,HCC-2998 colon,> 100 µM
same,TGI,ACHN renal,> 100 µM
CC(C)(C)[Si](C)(C)OCC1CCC(n2cnc3c(N)ncnc32)O1 (configuration not stated),TGI,NCI-H460 lung,> 100 µM
same,TGI,HOP-62 NSCLC,> 100 µM
same,TGI,SF-295 CNS,> 100 µM
same,TGI,IGROV1 ovarian,> 100 µM
same,TGI,RXF 393 renal,> 100 µM
same,TGI,KM12 colon,> 100 µM
same,TGI,NCI-H226 lung,> 100 µM
Cc1cccc2[s+]snc12,TGI,SF-268 CNS,> 100 µM
same,TGI,NCI-H460 lung,> 100 µM
same,TGI,HOP-62 NSCLC,> 100 µM
same,TGI,SF-295 CNS,> 100 µM
same,TGI,NCI-H522 lung,35.9 µM
same,TGI,IGROV1 ovarian,> 100 µM
same,TGI,RXF 393 renal,> 75.1 µM
same,TGI,KM12 colon,> 100 µM
same,TGI,NCI-H226 lung,> 100 µM
same,TGI,HCC-2998 colon,> 100 µM
same,TGI,ACHN renal,> 100 µM
COC(=O)c1ccc(N=NN(C)COc2ccc([N+](=O)[O-])cc2)cc1,TGI,SF-268 CNS,> 100 µM
same,TGI,NCI-H460 lung,> 100 µM
same,TGI,HOP-62 NSCLC,> 100 µM
same,TGI,SF-295 CNS,> 100 µM
same,TGI,NCI-H522 lung,> 100 µM
same,TGI,IGROV1 ovarian,> 100 µM
same,TGI,RXF 393 renal,> 100 µM
same,TGI,KM12 colon,> 100 µM
same,TGI,NCI-H226 lung,> 100 µM
same,TGI,HCC-2998 colon,> 100 µM
O=C(O)C1Cc2c([nH]c3ccccc23)C=N1 (configuration not stated),TGI,SF-268 CNS,> 100 µM
same,TGI,NCI-H460 lung,> 100 µM
same,TGI,HOP-62 NSCLC,> 100 µM
same,TGI,SF-295 CNS,> 100 µM
same,TGI,NCI-H522 lung,> 100 µM
same,TGI,IGROV1 ovarian,> 100 µM
same,TGI,RXF 393 renal,> 100 µM
same,TGI,KM12 colon,> 31.7 µM
same,TGI,HCC-2998 colon,> 100 µM
O=C1c2ccccc2-c2ccc(N=Nc3c(O)ccc4ccccc34)cc21,TGI,SF-268 CNS,> 100 µM
same,TGI,HOP-62 NSCLC,> 100 µM
same,TGI,SF-295 CNS,> 100 µM
same,TGI,NCI-H522 lung,> 100 µM
same,TGI,IGROV1 ovarian,> 100 µM
same,TGI,RXF 393 renal,> 100 µM
same,TGI,KM12 colon,> 100 µM
same,TGI,NCI-H226 lung,> 100 µM
COc1cc(C2=C(C#N)C(N)OC3=C2COc2ccccc23)cc(OC)c1OC (configuration not stated),TGI,SF-268 CNS,89.1 µM
same,TGI,NCI-H460 lung,84.8 µM
same,TGI,HOP-62 NSCLC,20.2 µM
same,TGI,IGROV1 ovarian,> 100 µM
same,TGI,KM12 colon,> 100 µM
same,TGI,NCI-H226 lung,91.1 µM
same,TGI,HCC-2998 colon,56.8 µM
same,TGI,ACHN renal,32.2 µM
C/C(=N/O)c1cccc(Nc2nc3ccc(Cl)cc3c3[nH]c4ccccc4c23)c1,TGI,SF-268 CNS,5.15 µM
same,TGI,NCI-H460 lung,4.29 µM
same,TGI,HOP-62 NSCLC,6.99 µM
same,TGI,SF-295 CNS,4.32 µM
same,TGI,NCI-H522 lung,3.26 µM
same,TGI,IGROV1 ovarian,11.5 µM
same,TGI,RXF 393 renal,3.27 µM
same,TGI,KM12 colon,3.79 µM
same,TGI,NCI-H226 lung,9.82 µM
same,TGI,ACHN renal,4.5 µM
c1cn2cc(-c3ccc4ncn(C5CCCCC5)c4c3)nc(-c3ccc4c(c3)ncn4C3CCCCC3)c2n1,GI50,SF-268 CNS,1.59 µM
same,TGI,SF-268 CNS,3.15 µM
same,GI50,NCI-H460 lung,1.98 µM
same,TGI,NCI-H460 lung,4.02 µM
same,GI50,HOP-62 NSCLC,2 µM
same,TGI,HOP-62 NSCLC,3.72 µM
same,GI50,SF-295 CNS,1.71 µM
same,TGI,SF-295 CNS,3.15 µM
same,GI50,RXF 393 renal,1.51 µM
same,TGI,RXF 393 renal,3 µM
same,GI50,HCC-2998 colon,1.81 µM
same,TGI,HCC-2998 colon,3.45 µM
same,GI50,ACHN renal,1.68 µM
same,TGI,ACHN renal,3.07 µM
CC12CCC(C(=O)N3CC=CCC3)(OC1=O)C2(C)C (configuration not stated),TGI,SF-268 CNS,> 100 µM
same,TGI,NCI-H460 lung,> 100 µM
same,TGI,HOP-62 NSCLC,> 100 µM
same,TGI,SF-295 CNS,> 100 µM
same,TGI,NCI-H522 lung,> 100 µM
same,TGI,IGROV1 ovarian,> 100 µM
same,TGI,RXF 393 renal,> 100 µM
same,TGI,KM12 colon,> 100 µM
same,TGI,NCI-H226 lung,> 100 µM
same,TGI,HCC-2998 colon,> 100 µM
CCC(=O)NC(Nc1ccc(O)cc1)(C(F)(F)F)C(F)(F)F,TGI,SF-268 CNS,> 100 µM
same,TGI,NCI-H460 lung,> 100 µM
same,TGI,HOP-62 NSCLC,> 100 µM
same,TGI,NCI-H522 lung,66.6 µM
same,TGI,RXF 393 renal,> 100 µM
same,TGI,KM12 colon,> 100 µM
same,TGI,NCI-H226 lung,> 100 µM
same,TGI,HCC-2998 colon,> 100 µM
same,TGI,ACHN renal,> 100 µM
O=[N+]([O-])c1ccc(Nc2nc3ccccc3s2)cc1,TGI,SF-268 CNS,91.7 µM
same,TGI,NCI-H460 lung,> 100 µM
same,TGI,HOP-62 NSCLC,> 100 µM
same,TGI,SF-295 CNS,> 100 µM
same,TGI,NCI-H522 lung,35.9 µM
same,TGI,IGROV1 ovarian,21.2 µM
same,TGI,RXF 393 renal,28.9 µM
same,TGI,KM12 colon,> 100 µM
same,TGI,NCI-H226 lung,> 100 µM
same,TGI,HCC-2998 colon,84 µM
same,TGI,ACHN renal,> 100 µM
Nc1ccc2c3c(n(CCCCl)c(=O)c2c1)-c1cc2c(cc1C3=O)OCO2,GI50,SF-268 CNS,> 100 µM
same,TGI,SF-268 CNS,> 100 µM
same,GI50,NCI-H460 lung,0.14 µM
same,TGI,NCI-H460 lung,> 100 µM
same,GI50,SF-295 CNS,0.349 µM
same,TGI,SF-295 CNS,> 100 µM
same,GI50,IGROV1 ovarian,0.177 µM
same,TGI,IGROV1 ovarian,> 100 µM
same,GI50,RXF 393 renal,55.1 µM
same,TGI,RXF 393 renal,> 100 µM
same,GI50,KM12 colon,41.6 µM
same,TGI,KM12 colon,> 100 µM
same,GI50,HCC-2998 colon,> 100 µM
same,TGI,HCC-2998 colon,> 100 µM
same,GI50,ACHN renal,> 100 µM
same,TGI,ACHN renal,> 100 µM
O=C1C(=O)c2ccccc2C(O)=C1CN(CCCl)CCCl,TGI,SF-268 CNS,> 100 µM
same,TGI,NCI-H460 lung,> 100 µM
same,TGI,HOP-62 NSCLC,> 100 µM
same,TGI,SF-295 CNS,> 100 µM
same,TGI,NCI-H522 lung,> 100 µM
same,TGI,IGROV1 ovarian,77.9 µM
same,TGI,RXF 393 renal,> 100 µM
same,TGI,KM12 colon,> 100 µM
same,TGI,HCC-2998 colon,> 100 µM
same,TGI,ACHN renal,> 100 µM
COC1CC(OC2CCC3(C)C(CCC45CCC(C6=CC(=O)OC6)C(C)(CCC43)C5=O)C2)OC(C)C1O (configuration not stated),TGI,SF-268 CNS,44 µM
same,TGI,NCI-H460 lung,32.4 µM
same,TGI,HOP-62 NSCLC,51.3 µM
same,TGI,SF-295 CNS,> 100 µM
same,TGI,NCI-H522 lung,82.1 µM
same,TGI,IGROV1 ovarian,> 100 µM
same,TGI,RXF 393 renal,89.4 µM
same,TGI,KM12 colon,> 100 µM
same,TGI,NCI-H226 lung,> 100 µM
same,TGI,HCC-2998 colon,44.4 µM
same,TGI,ACHN renal,41.1 µM
